US8211935B2, “Heterocyclic derivatives for modulation of calcium channels” (Vertex Pharmaceuticals Incorporated, priority 2004, dated 2012)

How the values were obtained:
[1] = neuropathic pain; cited from earlier work
CaV2.2 = target: T1, CaV2.2 (Homo sapiens, UniProt Q00975); test: VIPR optical membrane potential assay with electrical stimulation; type: cell-based; conditions: Table 3, biological assay data; read-out: IC50
T1 construct: expressed in transfected cells; host or cells: HEK293
Summary of the method: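 HEK293 cells stably expressing CaV2.2, stained with CC2-DMPE (10 μM final) and oxonol voltage-sensitive dyes, compound added with BaCl2. Membrane potential response evoked by 3-5 s electrical stimulation. Read as background-subtracted 460/580 nm emission ratio, response R=Rf/Ri, normalized to mibefradil positive and no-drug negative controls.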

T1 sequence (Q00975 whole entry): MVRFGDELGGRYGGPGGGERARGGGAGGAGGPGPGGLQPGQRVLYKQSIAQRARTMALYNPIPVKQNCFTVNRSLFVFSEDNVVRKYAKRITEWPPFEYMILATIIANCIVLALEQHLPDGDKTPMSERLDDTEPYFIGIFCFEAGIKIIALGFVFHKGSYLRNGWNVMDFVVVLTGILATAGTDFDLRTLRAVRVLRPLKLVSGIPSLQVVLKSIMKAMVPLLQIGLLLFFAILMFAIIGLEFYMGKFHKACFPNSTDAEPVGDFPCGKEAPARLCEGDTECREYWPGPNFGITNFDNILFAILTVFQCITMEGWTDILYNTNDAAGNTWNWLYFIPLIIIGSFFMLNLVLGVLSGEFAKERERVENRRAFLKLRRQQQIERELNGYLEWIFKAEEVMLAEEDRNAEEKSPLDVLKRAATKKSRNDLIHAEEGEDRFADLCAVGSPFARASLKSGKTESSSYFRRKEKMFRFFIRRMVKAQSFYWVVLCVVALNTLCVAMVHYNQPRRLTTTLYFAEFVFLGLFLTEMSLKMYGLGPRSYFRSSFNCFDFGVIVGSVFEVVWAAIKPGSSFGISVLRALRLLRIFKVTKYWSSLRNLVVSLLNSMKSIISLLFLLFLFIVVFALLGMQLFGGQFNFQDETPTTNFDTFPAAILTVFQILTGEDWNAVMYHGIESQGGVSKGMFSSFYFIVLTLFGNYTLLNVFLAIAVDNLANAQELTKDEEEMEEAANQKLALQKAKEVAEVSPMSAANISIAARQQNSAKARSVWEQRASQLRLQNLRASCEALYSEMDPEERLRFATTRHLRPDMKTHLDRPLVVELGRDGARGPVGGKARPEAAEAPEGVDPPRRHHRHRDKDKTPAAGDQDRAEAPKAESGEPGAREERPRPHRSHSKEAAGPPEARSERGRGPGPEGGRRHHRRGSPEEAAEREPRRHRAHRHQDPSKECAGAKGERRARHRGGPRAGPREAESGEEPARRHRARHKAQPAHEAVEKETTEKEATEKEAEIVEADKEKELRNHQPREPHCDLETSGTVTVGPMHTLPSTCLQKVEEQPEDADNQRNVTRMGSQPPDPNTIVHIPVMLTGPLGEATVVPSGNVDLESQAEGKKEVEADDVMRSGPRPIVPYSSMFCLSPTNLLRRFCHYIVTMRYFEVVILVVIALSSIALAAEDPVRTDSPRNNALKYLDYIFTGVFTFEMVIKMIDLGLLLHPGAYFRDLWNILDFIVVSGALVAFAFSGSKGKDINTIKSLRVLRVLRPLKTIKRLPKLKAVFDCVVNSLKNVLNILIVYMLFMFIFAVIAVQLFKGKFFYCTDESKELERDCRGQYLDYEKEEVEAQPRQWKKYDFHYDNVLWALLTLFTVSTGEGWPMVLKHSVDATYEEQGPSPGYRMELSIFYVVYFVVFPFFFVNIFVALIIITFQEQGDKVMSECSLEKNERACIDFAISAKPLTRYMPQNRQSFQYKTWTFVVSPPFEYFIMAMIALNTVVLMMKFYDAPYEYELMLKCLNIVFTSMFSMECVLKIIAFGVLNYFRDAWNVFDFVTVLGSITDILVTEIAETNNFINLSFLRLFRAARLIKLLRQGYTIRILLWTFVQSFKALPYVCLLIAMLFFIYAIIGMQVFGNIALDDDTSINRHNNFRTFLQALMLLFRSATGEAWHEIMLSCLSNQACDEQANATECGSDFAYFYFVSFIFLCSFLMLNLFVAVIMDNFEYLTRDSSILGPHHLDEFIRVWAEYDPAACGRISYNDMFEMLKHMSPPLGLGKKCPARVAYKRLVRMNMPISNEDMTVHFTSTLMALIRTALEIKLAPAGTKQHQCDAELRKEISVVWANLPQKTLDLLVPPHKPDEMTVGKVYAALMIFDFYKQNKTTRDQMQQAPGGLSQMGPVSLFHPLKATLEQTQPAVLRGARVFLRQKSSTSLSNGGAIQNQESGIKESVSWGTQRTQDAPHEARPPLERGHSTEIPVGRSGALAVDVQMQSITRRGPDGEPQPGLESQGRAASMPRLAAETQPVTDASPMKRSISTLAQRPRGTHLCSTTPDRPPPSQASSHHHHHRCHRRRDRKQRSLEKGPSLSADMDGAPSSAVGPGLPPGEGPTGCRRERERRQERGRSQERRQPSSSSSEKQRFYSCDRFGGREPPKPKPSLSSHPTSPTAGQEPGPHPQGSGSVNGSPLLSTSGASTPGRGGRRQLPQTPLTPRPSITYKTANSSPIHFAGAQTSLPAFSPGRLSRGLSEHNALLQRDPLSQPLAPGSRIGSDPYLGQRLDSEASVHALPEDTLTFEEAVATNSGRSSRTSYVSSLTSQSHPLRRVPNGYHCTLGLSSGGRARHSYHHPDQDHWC
T1 sequence (P54284 whole entry partner): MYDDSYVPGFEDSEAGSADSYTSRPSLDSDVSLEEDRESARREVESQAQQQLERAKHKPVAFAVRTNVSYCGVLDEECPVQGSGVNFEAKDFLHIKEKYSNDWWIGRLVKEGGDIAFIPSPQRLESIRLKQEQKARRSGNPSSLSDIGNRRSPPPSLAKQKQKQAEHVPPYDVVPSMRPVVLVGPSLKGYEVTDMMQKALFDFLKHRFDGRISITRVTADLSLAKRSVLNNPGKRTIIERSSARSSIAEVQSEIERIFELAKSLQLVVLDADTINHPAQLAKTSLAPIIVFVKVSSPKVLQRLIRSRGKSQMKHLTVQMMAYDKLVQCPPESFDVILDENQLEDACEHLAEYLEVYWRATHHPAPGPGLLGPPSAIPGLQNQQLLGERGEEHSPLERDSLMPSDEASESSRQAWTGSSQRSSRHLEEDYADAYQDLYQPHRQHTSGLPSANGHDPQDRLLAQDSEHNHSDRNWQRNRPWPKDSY
T1 sequence (P54289 25-946 partner limits assumed): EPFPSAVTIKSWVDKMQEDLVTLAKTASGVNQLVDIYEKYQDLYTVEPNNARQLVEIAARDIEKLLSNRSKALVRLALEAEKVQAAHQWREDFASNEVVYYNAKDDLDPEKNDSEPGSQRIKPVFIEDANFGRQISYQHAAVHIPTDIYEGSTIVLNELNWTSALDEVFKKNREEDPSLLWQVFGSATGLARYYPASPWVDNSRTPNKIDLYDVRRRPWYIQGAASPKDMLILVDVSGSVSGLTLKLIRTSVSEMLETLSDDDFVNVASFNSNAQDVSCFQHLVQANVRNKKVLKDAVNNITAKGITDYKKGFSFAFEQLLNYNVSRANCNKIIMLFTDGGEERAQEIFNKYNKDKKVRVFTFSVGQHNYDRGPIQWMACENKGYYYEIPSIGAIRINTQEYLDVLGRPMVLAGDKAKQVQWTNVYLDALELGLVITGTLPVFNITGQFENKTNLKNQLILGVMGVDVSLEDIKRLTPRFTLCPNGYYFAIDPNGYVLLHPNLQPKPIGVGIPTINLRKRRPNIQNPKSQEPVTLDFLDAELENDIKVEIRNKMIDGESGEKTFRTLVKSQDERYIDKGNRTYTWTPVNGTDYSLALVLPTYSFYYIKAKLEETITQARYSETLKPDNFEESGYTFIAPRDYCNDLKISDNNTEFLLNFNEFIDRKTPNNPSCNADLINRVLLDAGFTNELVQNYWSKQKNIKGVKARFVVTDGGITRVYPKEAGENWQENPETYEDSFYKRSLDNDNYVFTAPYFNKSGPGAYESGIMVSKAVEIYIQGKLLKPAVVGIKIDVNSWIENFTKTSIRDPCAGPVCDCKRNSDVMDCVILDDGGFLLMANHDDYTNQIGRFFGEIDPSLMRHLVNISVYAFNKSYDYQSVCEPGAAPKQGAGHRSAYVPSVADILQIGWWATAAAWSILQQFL
T1 sequence (P54289 947-1103 partner limits assumed): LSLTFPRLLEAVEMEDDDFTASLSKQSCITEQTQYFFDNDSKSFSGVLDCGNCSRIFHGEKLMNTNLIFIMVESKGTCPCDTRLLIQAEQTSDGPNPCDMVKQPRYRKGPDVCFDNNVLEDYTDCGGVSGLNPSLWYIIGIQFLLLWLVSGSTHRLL

SMILES | patients in whom the drug works [1] [%] | IC50 (CaV2.2) [µM]
NCC1(CC(=O)O)CCCCC1 [Gabapentin] | 60 | 
CC1CC(C)CN(S(=O)(=O)c2ccc3oc(C(=O)NC4CCCCC4)cc3c2)C1 (centres unmarked) [compound 455] |  | < 5
CC1CCN(S(=O)(=O)c2ccc3oc(C(=O)NCC4CCCO4)cc3c2)CC1 (centres unmarked) [compound 456] |  | 5 to 20
Cc1c(C(=O)N2CCCC2)[nH]c2ccc(S(=O)(=O)N3CCC(C)CC3)cc12 [compound 457] |  | 5 to 20
CCN(CC)S(=O)(=O)c1ccc2oc(C(=O)NCC3CCOCC3)c(C)c2c1 [compound 458] |  | < 20
Cc1c(C(=O)NC2CCCCC2)oc2ccc(S(=O)(=O)N3CCCCC3)cc12 [compound 459] |  | 5 to 20
Cc1c(C(=O)N2CCCCC2)oc2ccc(S(=O)(=O)N3CCC(C)CC3)cc12 [compound 460] |  | 5 to 20
CC1CC(C)CN(S(=O)(=O)c2ccc3c(c2)cc(C(=O)N(C)C)n3C)C1 (centres unmarked) [compound 461] |  | < 5
Cc1c(C(=O)N2CCc3ccccc3C2)oc2ccc(S(=O)(=O)N3CCCCC3)cc12 [compound 462] |  | < 5
CCCN(CC1CC1)C(=O)c1cc2cc(S(=O)(=O)N3CC(C)CC(C)C3)ccc2n1C (centres unmarked) [compound 463] |  | < 5
Cc1c(C(=O)N(C)Cc2ccccc2)oc2ccc(S(=O)(=O)N3CCC(C)CC3)cc12 [compound 464] |  | < 5
Cc1c(C(=O)NC2CCCCC2)oc2ccc(S(=O)(=O)N3CCC(C)CC3)cc12 [compound 465] |  | 5 to 20
Cc1c(C(=O)N2CCC(C)CC2)oc2ccc(S(=O)(=O)N3CC(C)CC(C)C3)cc12 (centres unmarked) [compound 466] |  | < 5
Cc1c(C(=O)NCCC2CCOCC2)oc2ccc(S(=O)(=O)N3CCCC(C)C3)cc12 (centres unmarked) [compound 467] |  | < 5
Cc1c(C(=O)N2CCCCC2)oc2ccc(S(=O)(=O)N3CCCCCC3)cc12 [compound 468] |  | 5 to 20
CCNC(=O)c1cc2cc(S(=O)(=O)N3CC(C)CC(C)C3)ccc2o1 (centres unmarked) [compound 469] |  | < 5
CC1CC(C)CN(S(=O)(=O)c2ccc3c(c2)cc(C(=O)N2CCCCC2)n3S(=O)(=O)C(C)C)C1 (centres unmarked) [compound 470] |  | 5 to 20
